Laboratory results as given in patent US9695155B2, “Herbicidal substituted pyrimidinyloxy benzene compounds” (E. I. DU PONT DE NEMOURS AND COMPANY, priority 2013, dated 2017).

Assays:
Brazilian crabgrass = assay: Test E preemergence; type: in vivo, Digitaria horizontalis; conditions: for Crabgrass, Brazil plant response rating: scale 0 to 100 (0 no effect, 100 complete control); for Plant response rating, Crabgrass, Brazil: 125 g ai/ha, scale 0 to 100, 0 no effect, 100 complete control
Method in brief: (§1)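 Test chemicals formulated in a non-phytotoxic solvent mixture containing a surfactant were applied preemergence to seeds in silt loam soil or postemergence to plants at the 1- to 4-leaf stage in potting mix. After 14 to 21 days in a greenhouse, injury was visually rated against controls on a 0-100 scale (0 = no effect, 100 = complete control).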

goosegrass = assay: Test E preemergence; type: in vivo, Eleusine indica; conditions: for Goosegrass plant response rating: scale 0 to 100 (0 no effect, 100 complete control); for Plant response rating, Goosegrass: 125 g ai/ha, scale 0 to 100, 0 no effect, 100 complete control
Excerpt: (§2) Seeds of plant species selected from corn (Zea mays), soybean (Glycine max), velvetleaf (Abutilon theophrasti), lambsquarters (Chenopodium album), wild poinsettia (Euphorbia heterophylla), palmer pigweed (Amaranthus palmeri), waterhemp (common waterhemp, Amaranthus rudis), surinam grass (Brachiaria decumbens), large (Lg) crabgrass (Digitaria sanguinalis), Brazilian crabgrass (Digitaria horizontalis), fall panicum (Panicum dichotomiflorum), giant foxtail (Setaria faberii), green foxtail (Setaria viridis), goosegrass (Eleusine indica), johnsongrass (Sorghum halepense), ragweed (common ragweed, Ambrosia elatior), barnyardgrass (Echinochloa crus-galli), sandbur (southern sandbur, Cenchrus echinatus), arrowleaf sida (Sida rhombifolia), Italian ryegrass (Lolium multiflorum), dayflower (Virginia (VA) dayflower, Commelina virginica), field bindweed (Convolvulus arvensis), morningglory (Ipomoea coccinea), nightshade (eastern black nightshade, Solanum ptycanthum), kochia (Kochia scoparia), yellow nutsedge (Cyperus esculentus), cocklebur (common cocklebur, Xanthium strumarium), smartweed (ladysthumb smartweed, and hairy beggarticks (Bidens pilosa), were planted into a silt loam soil and treated preemergence with test chemicals formulated in a non-phytotoxic solvent mixture which included a surfactant.
(§3) At the same time, plants from these crop and weed species and also horseweed (Canada horseweed, Conyza canadensis), waterhemp_RES1, (ALS & Triazine resistant common waterhemp, Amaranthus rudis), and waterhemp_RES2, (ALS & HPPD resistant common waterhemp, Amaranthus rudis) were planted in pots containing Redi-Earth® planting medium (Scotts Company, 14111 Scottslawn Road, Marysville, Ohio 43041) comprising spaghnum peat moss, vermiculite, wetting agent and starter nutrients were treated with postemergence applications of test chemicals formulated in the same manner. Plants ranged in height from 2 to 18 cm for postemergence treatments (1- to 4-leaf stage). Treated plants and controls were maintained in a greenhouse for 14 to 21 days, after which time all species were compared to controls and visually evaluated. Plant response ratings, summarized in Table E, are based on a scale of 0 to 100 where 0 is no effect and 100 is complete control. A dash (-) response means no test result.

wild poinsettia = assay: Test E preemergence; type: in vivo, Euphorbia heterophylla; conditions: for Poinsettia, Wild plant response rating: scale 0 to 100 (0 no effect, 100 complete control); for Plant response rating, Poinsettia, Wild: 125 g ai/ha, scale 0 to 100, 0 no effect, 100 complete control
Method in brief: as §1

Italian ryegrass = assay: Test A postemergence; type: in vivo, Lolium multiflorum; conditions: 0 to 100 scale, 0 no effect, 100 complete control
Method in brief: (§4)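 Scoring: eye-based comparison with untreated controls, 0 for no effect through 100 for complete control, at about day 10. Treatments: directed soil spray preemergence; foliar spray postemergence on 2–10 cm plants at the one- to two-leaf stage. Medium: loam soil with sand.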

lambsquarters = assay: Test E preemergence; type: in vivo, Chenopodium album; conditions: for Lambsquarters plant response rating: scale 0 to 100 (0 no effect, 100 complete control); for Plant response rating, Lambsquarters: 125 g ai/ha, scale 0 to 100, 0 no effect, 100 complete control
Method in brief: as §1

kochia [1] = assay: Test E preemergence; type: in vivo, Kochia scoparia; conditions: for Kochia plant response rating: scale 0 to 100 (0 no effect, 100 complete control); for Plant response rating, Kochia: 125 g ai/ha, scale 0 to 100, 0 no effect, 100 complete control
Method in brief: as §1

hairy beggarticks = assay: Test E preemergence; type: in vivo, Bidens pilosa; conditions: for Beggarticks plant response rating: scale 0 to 100 (0 no effect, 100 complete control); for Plant response rating, Beggarticks: scale 0 to 100, 0 no effect, 100 complete control
Excerpt: as §2, §3

yellow nutsedge = assay: Test E preemergence; type: in vivo, Cyperus esculentus; conditions: for Nutsedge, Yellow plant response rating: scale 0 to 100 (0 no effect, 100 complete control); for Plant response rating, Nutsedge, Yellow: 125 g ai/ha, scale 0 to 100, 0 no effect, 100 complete control
Method in brief: as §1

kochia [2] = assay: Test A postemergence; type: in vivo, Kochia scoparia; conditions: 0 to 100 scale, 0 no effect, 100 complete control
Method in brief: as §4

field bindweed = assay: Test E preemergence; type: in vivo, Convolvulus arvensis; conditions: for Field Bindweed plant response rating: scale 0 to 100 (0 no effect, 100 complete control); for Plant response rating, Field Bindweed: 125 g ai/ha, scale 0 to 100, 0 no effect, 100 complete control
Method in brief: as §1

waterhemp = assay: Test E preemergence; type: in vivo, Amaranthus rudis; conditions: for Waterhemp plant response rating: scale 0 to 100 (0 no effect, 100 complete control); for Plant response rating, Waterhemp: 125 g ai/ha, scale 0 to 100, 0 no effect, 100 complete control
Method in brief: as §1

| Compound | Crabgrass, Brazil plant response rating (Brazilian crabgrass; 16 g ai/ha) | Crabgrass, Brazil plant response rating (Brazilian crabgrass; 31 g ai/ha) | Crabgrass, Brazil plant response rating (Brazilian crabgrass; 62 g ai/ha) | Plant response rating, Crabgrass, Brazil (Brazilian crabgrass) | Goosegrass plant response rating (goosegrass; 31 g ai/ha) | Goosegrass plant response rating (goosegrass; 62 g ai/ha) | Plant response rating, Goosegrass (goosegrass) | Poinsettia, Wild plant response rating (wild poinsettia; 31 g ai/ha) | Poinsettia, Wild plant response rating (wild poinsettia; 62 g ai/ha) | Plant response rating, Poinsettia, Wild (wild poinsettia) | Lambsquarters plant response rating (lambsquarters; 31 g ai/ha) | Lambsquarters plant response rating (lambsquarters; 62 g ai/ha) | Plant response rating, Lambsquarters (lambsquarters) | Kochia plant response rating (kochia [1]; 31 g ai/ha) | Kochia plant response rating (kochia [1]; 62 g ai/ha) | Plant response rating, Kochia (kochia [1]) | Beggarticks plant response rating (hairy beggarticks; 16 g ai/ha, preemergence) | Beggarticks plant response rating (hairy beggarticks; 31 g ai/ha, preemergence) | Plant response rating, Beggarticks (hairy beggarticks; preemergence, 125 g ai/ha) | Nutsedge, Yellow plant response rating (yellow nutsedge; 31 g ai/ha) | other results |
| --- | --- | --- | --- | --- | --- | --- | --- | --- | --- | --- | --- | --- | --- | --- | --- | --- | --- | --- | --- | --- | --- |
| FCc1cccc(Oc2ncc(Cl)cn2)c1-n1cc(Cl)cn1 [Compound 250] | 0 | 0 | 5 | 98 | 0 | 0 | 65 | 0 | 0 | 20 | 0 | 0 | 100 | 0 | 0 | 98 | 0 | 0 | 20 | 0 | Plant response rating, Ryegrass, Italian (Italian ryegrass; 31 g ai/ha): 0; Plant response rating, Ryegrass, Italian (Italian ryegrass; 125 g ai/ha): 0; Beggarticks plant response rating (hairy beggarticks; 62 g ai/ha, preemergence): 0; Nutsedge, Yellow plant response rating (yellow nutsedge; 62 g ai/ha): 0; Plant response rating, Nutsedge, Yellow (yellow nutsedge): 40; Plant response rating, Kochia (kochia [2]; 31 g ai/ha): 60; Plant response rating, Kochia (kochia [2]; 125 g ai/ha): 90; Field Bindweed plant response rating (field bindweed; 16 g ai/ha): 0; Field Bindweed plant response rating (field bindweed; 31 g ai/ha): 0; Field Bindweed plant response rating (field bindweed; 62 g ai/ha): 0; Plant response rating, Field Bindweed (field bindweed): 0; Waterhemp plant response rating (waterhemp; 31 g ai/ha): 0; Waterhemp plant response rating (waterhemp; 62 g ai/ha): 0; Plant response rating, Waterhemp (waterhemp): 100 |
| N#Cc1cnn(-c2c(C#N)cccc2Oc2ncc(F)cn2)c1 [Compound 111] | 0 | 30 | 75 | 100 | 5 | 40 | 65 | 30 | 70 | 85 | 80 | 98 | 100 | 10 | 95 | 95 | 20 | 30 | 80 | 0 | Goosegrass plant response rating (goosegrass; 16 g ai/ha): 0; Poinsettia, Wild plant response rating (wild poinsettia; 16 g ai/ha): 15; Lambsquarters plant response rating (lambsquarters; 16 g ai/ha): 50; Kochia plant response rating (kochia [1]; 16 g ai/ha): 0; Plant response rating, Beggarticks (hairy beggarticks; Preemergence, 62 g ai/ha): 60; Nutsedge, Yellow plant response rating (yellow nutsedge; 16 g ai/ha): 0; Nutsedge, Yellow plant response rating (yellow nutsedge; 62 g ai/ha): 0; Plant response rating, Nutsedge, Yellow (yellow nutsedge): 15; Field Bindweed plant response rating (field bindweed; 16 g ai/ha): 15; Field Bindweed plant response rating (field bindweed; 31 g ai/ha): 15; Field Bindweed plant response rating (field bindweed; 62 g ai/ha): 60; Plant response rating, Field Bindweed (field bindweed): 80; Waterhemp plant response rating (waterhemp; 16 g ai/ha): 0; Waterhemp plant response rating (waterhemp; 31 g ai/ha): 65; Waterhemp plant response rating (waterhemp; 62 g ai/ha): 80; Plant response rating, Waterhemp (waterhemp): 100 |
